Source: paper PMC11623267, “Inhibitors of malaria parasite cyclic nucleotide phosphodiesterases block asexual blood-stage development and mosquito transmission” (Science Advances, 2024)

What was measured:
[1] = test system: P. falciparum stage IV/V gametocytes; test: LDH-based gametocyte viability assay; format: cell-based, Plasmodium falciparum; details: stage IV to V gametocytes
Summary of the method: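 Late gametocytes (>95% stage IV/V) at 2% gametocytemia and 1% hematocrit, exposed to compound in triplicate for 72 h at 37°C, then 75% medium change to drug-free medium and another 72 h. Viability from pLDH activity with Malstat reagent (pH 9) plus PES/NBT, absorbance at 620 nm.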

[2] = test system: P. falciparum NF54 gametocytes fed to Anopheles stephensi; test: Initial SMFA and sporozoite production; format: in vivo, Plasmodium falciparum; details: for Oocyst and sporozoite formation: 0.5 and 1 μM
Procedure: P. falciparum NF54 gametocytes were prepared for blood-feeding to mosquitoes according to the method described ([57]), with some slight modifications. Briefly, gametocyte cultures seeded at 2% overall parasitemia and 4% hematocrit were maintained at 37°C for 16 days with daily medium changes. Gametocyte functional viability was assessed by an exflagellation assay at day 14 after induction, observed by light microscopy. Anopheles stephensi (SD500 strain) were reared as described ([58]). Gametocyte aliquots from a single NF54 culture, produced as above, were incubated either with SAL-0010003 or SAL-0010042 in two separate experiments at 100 nM, 500 nM or 1 μM, 1 μM methylene blue (full-block control), or culture medium only (no-drug control) from day 14 to day 16 when SMFA was carried out. Fresh drug-containing medium was provided each day during this exposure. Pots containing 70 to 80 female A. stephensi mosquitoes, aged 2 to 5 days old, were allowed to feed on 500 μl of the respective culture plus drug mixture, presented to each pot in a preheated three-dimensional printed water channel membrane feeder ([59]), until fully fed. Mosquitoes were placed in an incubator at standard conditions. Seven to 8 days after the feed, 10 to 15 mosquitoes were removed and kept under standard conditions for salivary gland dissection on day 14 after feeding. The remaining mosquito midguts were dissected on day […] or day 7, respectively, after the feed in 0.25% mercurochrome stain to determine oocyst counts by light microscopy.

[3] = test system: P. falciparum stage V gametocytes (female gamete formation); test: Female gamete formation inhibition assay; format: cell-based, Plasmodium falciparum; details: for IC50: 48 hours exposure
Summary of the method: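 P. falciparum gametocytes (>95% stage V) were treated for 48 h with compound at 2 μM or in a fourfold dilution series. Female gamete formation was then triggered by a temperature drop plus 100 μM xanthurenic acid. Gametes were detected with FITC-anti-Pfs25, 30 images per sample were counted manually, and IC50 was fitted after normalisation to maximum and minimum inhibition.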

[4] = test system: P. falciparum mature stage V gametocytes; test: Induction of gametogenesis; format: cell-based, Plasmodium falciparum; details: 1× IC50, without XA or temperature drop
Procedure: Mature (>90% stage V) gametocytes were exposed to short-term treatment with two of the 5-benzyl series compounds, SAL-0010042 and SAL-0010003. In the absence of any other stressors (drop in temperature, pH increase, and XA), mature gametocytes were treated at 1× IC50 of either compound, and samples were taken at 15, 30, and 60 min. Giemsa-stained slides were prepared at these time points, and the parasite populations were evaluated morphologically using light microscopy. Male and female gametes were identified or distinguished on the basis of rounding up, shape, and size. Statistical evaluation was performed with paired, two-tailed t test (GraphPad Prism 6.0).

[5] = test system: P. falciparum stage V gametocytes (male gamete formation); test: Exflagellation (male gamete formation) inhibition assay; format: cell-based, Plasmodium falciparum; details: for IC50: 48 hours exposure
Summary of the method: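 Mature stage V gametocytes (>95%) treated with compound for 48 h (2 μM single point, or fourfold serial dilutions), then exflagellation induced in ookinete medium with 100 μM XA and 20% human serum, compound still present. Exflagellation centres counted by video microscopy at room temperature between 15 and 22.5 min; IC50 from curves normalised to maximum and minimum inhibition.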

[6] = Plasmodium falciparum, 2 μM, 48 hours

Compound | % inhibition gametocyte viability at 15 μM [1] | Infection prevalence and intensity ([2]; 100 nM) | Oocyst and sporozoite formation [2] | inhibition at 2 µM [3, 6] | IC50 ([3]; Plasmodium falciparum) | Time to stimulate gametogenesis of mature stage V gametocytes [4] | inhibition at 2 µM [5, 6] | IC50 ([5]; Plasmodium falciparum) | % inhibition of female gamete formation at 2 μM ([3]; 2 μM, 48 hours) | IC50 [3] | % inhibition of exflagellation at 2 μM ([5]; 2 μM, 48 hours) | IC50 [5]
CC(C)c1n[nH]c2c(=O)[nH]c(Cc3ccc(F)cc3F)nc12 [SAL-0010003] | 65.4 ± 20.3% | reduced | Few or no oocysts or sporozoites | 71.3 ± 1.5% | 273 nM | ≤ 15 min | 88.4 ± 17% | 404 nM |  |  |  | 
CC(C)c1[nH]nc2c(=O)[nH]c(Cc3ccccc3F)nc12 [SAL-0010042] | 99.6 ± 1.3% |  | Few or no oocysts or sporozoites |  |  | ≤ 15 min |  |  | 97.7 ± 0.4% | 238 nM | 95.4 ± 18.0% | 386 nM
